Test results: paper PMC5980230, “Mucosal absorption of therapeutic peptides by harnessing the endogenous sorting of glycosphingolipids” (eLife, 2018)
“And” between values parts separate entries of the source, which are not always exact repeats. Identical values can stand only once.

Key:
[1] = Intraperitoneal glucose tolerance test; format: in vivo; design: unit not given here; settings: IP injected, individual mice, not corrected
Source text: To test for absorption and biologic incretin activity in vivo, we gastrically gavaged equal doses (10 nmol/kg) of the C6:0-GM1-GLP-1 fusion, the unfused GLP-1 peptide (GLP-1 oral), or vehicle into wild-type mice and measured effects on glucose metabolism by glucose tolerance test (Figure 5C). […] The effect on glucose tolerance by gastrically administered C6:0-GM1-GLP-1 was similar to the effect achieved by the intraperitoneal injection of GLP-1 peptide alone, implicating an equally high level of bioavailability for the gastrically-delivered GM1-fusion molecule (Figure 5D).
For intraperitoneal glucose tolerance tests, a 10 nmol/kg dose was used to gavage overnight-fasted WT C57/BL/6 mice (male 7–9 weeks old) with GM1-GLP-1 fusion molecules or unfused GLP-1. Glucose measurements following i.p administration of 2 mg/g glucose solution were obtained from tail vein blood applied directly to glucose strips as in ([te Welscher et al., 2014]).

[2] = GLP-1 in blood by streptavidin capture and luciferase bioassay; format: in vivo; settings: individual mice, Ex 3 excluded from Figure 5E
Source text: We confirmed intestinal absorption of the C6:0-GM1-GLP-1 into the systemic circulation in two ways. First, we measured GLP-1 activity in blood samples by streptavidin capture and quantitative luciferase bioassay (Figure 5E). […] In a second approach, we synthesized an all D-amino acid (non-degradable) isomer of GLP-1 coupled to AF488 to allow for direct quantitative measurement of the […] isomer in the blood using the same streptavidin capture assay as described for our reporter peptide (Figure 5A). Again, we find evidence for absorption of the GLP-1 cargo when fused to the C6:0-GM1 transport vehicle, but no absorption for the unfused GLP-1 peptide (Figure 5F). These experiments were performed in two different laboratories, using two different animal facilities with the same results. In all assays (Figure 5C–5F), we find the efficiency of intestinal absorption enabled by fusion to C6:0-GM1 was again almost as efficient as for IP injection of the peptide alone, implicating a high level of bioavailability for the GM1-fusion molecules applied by gastric gavage.

[3] = oral, 15 min after gastric gavage

GLP-1
total area under glucose tolerance curves (AUC) [1]: 2184 and 5775 and 3223 and 5783 and 10013 and 10613 and 14078 and 12630 and 14685 and 4613 and 1628 and 6533 and 2735 and 13695 and 6728 and 15120 and 10928 and 9270 and 7061 and 9383 and 7166 and 10043 and 10253 | GLP-1 in blood, corrected for vehicle ([2]; IP-injected): 6.787 fmols per 100uls blood and 7.191 fmols per 100uls blood and 4.472 fmols per 100uls blood and 6.8463 fmols per 100uls blood and 3.406 fmols per 100uls blood and 4.493 fmols per 100uls blood and 6.695 fmols per 100uls blood and 7.88 fmols per 100uls blood and 13.0711 fmols per 100uls blood and 7.126 fmols per 100uls blood | GLP-1 in blood, raw data not corrected for vehicle ([2]; IP-injected): 8.132 fmols in 100 uls blood and 10.5063 fmols in 100 uls blood and 7.066 fmols in 100 uls blood and 8.153 fmols in 100 uls blood and 6.729 fmols in 100 uls blood and 7.914 fmols in 100 uls blood and 21.2711 fmols in 100 uls blood and 15.3265 fmols in 100 uls blood and 7.237 fmols in 100 uls blood and 7.641 fmols in 100 uls blood | GLP-1 in blood, corrected for vehicle [2, 3]: 0.3766 fmols per 100uls blood and 0.3584 fmols per 100uls blood and 0.3383 fmols per 100uls blood and 0.4572 fmols per 100uls blood and -1.003 fmols per 100uls blood and -1.627 fmols per 100uls blood and 2.205 fmols per 100uls blood and 0.253 fmols per 100uls blood and 1.235 fmols per 100uls blood and 0.303 fmols per 100uls blood and -0.01924 fmols per 100uls blood and 0.2681 fmols per 100uls blood and -0.002238 fmols per 100uls blood and -1.223 fmols per 100uls blood and 0.4322 fmols per 100uls blood and -3.718 fmols per 100uls blood | GLP-1 in blood, raw data not corrected for vehicle [2, 3]: 2.657 fmols in 100 uls blood and 2.033 fmols in 100 uls blood and 5.865 fmols in 100 uls blood and 3.913 fmols in 100 uls blood and 4.895 fmols in 100 uls blood and 3.963 fmols in 100 uls blood and 0.01476 fmols in 100 uls blood and 0.3021 fmols in 100 uls blood and 0.03176 fmols in 100 uls blood and 6.977 fmols in 100 uls blood and 8.632 fmols in 100 uls blood and 4.482 fmols in 100 uls blood and 0.8266 fmols in 100 uls blood and 0.8084 fmols in 100 uls blood and 0.7883 fmols in 100 uls blood and 0.9072 fmols in 100 uls blood
